According to publication PMC3330111, “Computational Design of a PDZ Domain Peptide Inhibitor that Rescues CFTR Activity” (PLoS Computational Biology, 2012):
“Also recorded” adds a separate entry of the source. Ends that are not written are not given here.

Assays:
ΔF508-CFTR chloride flux [1] = details: CFBE-ΔF cells, identical experimental conditions; ref [1]; cited from earlier work
Description: While this effect is clearly statistically significant ( ), we also wished to assess its magnitude relative to the effect of known rescue compounds. The performance of kCAL01 was benchmarked using polarized human airway epithelial cells derived from a CF patient (stably expressing ΔF508-CFTR; CFBE- F cells). In these cells, CFTR rescue is more challenging than in heterologous cells, but the levels of rescue observed are more likely to reflect the physiological situation. Since CFTR modulation is extremely sensitive to experimental con ...

CAL PDZ domain [2] = molecular target: T1, CAL PDZ domain (Homo sapiens, UniProt Q9HD26); assay: fluorescence polarization (FP) competition binding; details: for Ki: FP competition, compared with best previously known hexamer (iCAL35), read-out: Experimental Ki, mark †
Description: The inhibitor dissociation constants of top- and poorly-ranked peptide sequences from the [drawing 176] CAL-CFTR design were experimentally determined. As a control, the best known peptide hexamer was also retested. The corresponding N-terminally acetylated peptides were purchased from NEO BioScience (Cambridge, MA) and the [drawing 177] values for the peptides were detected using fluorescence polarization (FP), using the method previously described in [59]. […] Each peptide inhibitor was serially diluted and the protein-peptide mixture was added to each dilution. Finally, the amount of competitive inhibition was tracked using residual fluorescence polarization at temperatures between [drawing 178] . Each [drawing 179] value is reported as an average of three FP experiments conducted on separate days along with the corresponding standard deviation.

ΔF508-CFTR chloride flux [3] = assay: Ussing chamber chloride flux in CFBE-ΔF cells; type: cell-based, human; details: polarized CFBE-ΔF monolayers, 3.5 hour incubation; for improvement in chloride secretion with respect to control peptide kCAL31: peptide delivered with BioPORTER, change in short circuit current on CFTR-specific inhibitor after amiloride, forskolin, genistein
Protocol: Ussing chamber experiments were performed as described previously. Polarized monolayers of patient-derived bronchial epithelial cells, CFBE- [drawing 180] F cells (a generous gift of Dr. J.P. Clancy, [63]), were maintained in MEM with 2 mM l-glutamine, 10% fetal bovine serum, 50 units/mL penicillin, [drawing 181] streptomycin, [drawing 182] puromycin, [drawing 183] plasmocin, and [drawing 184] amphotericin B. Cells were grown at [drawing 185] in 5% [drawing 186] . Twenty four hours before treatment the cells were moved to MEM with only penicillin and streptomycin. Peptides were dissolved in DMSO and diluted to [drawing 187] in PBS. Peptide solutions were applied to cells following incubation with BioPORTER delivery reagent (Sigma). […] Following a 3.5 hour incubation with peptide, short circuit currents ( [drawing 188] ) were monitored in Ussing chambers. Following treatment with amiloride, forskolin, and genistein, ΔF508-CFTR chloride flux was measured as the change in [drawing 189] when the CFTR-specific inhibitor, [drawing 190] [64], [65], was applied to the cell monolayer. All measurements were performed at [drawing 191] .

CAL PDZ domain [4] = molecular target: T1, CAL PDZ domain; assay: ProLib profile library SPOT array; type: binding; details: 10 µg/ml His-tagged CAL PDZ domain, anti-His/anti-mouse-HRP detection
Protocol: After the [drawing 124] predictions were calculated, the binding of C-termini peptides to CAL was also experimentally assessed using an additional SPOT array. The profile library array (ProLib; Fig. S3 in Text S1) was designed based on the following motif: bbbb [drawing 125] (B = permutation of a defined set of amino acids, b = mixture of 17 amino acids, without C, M and W). The defined set of amino acids were selected based on the HumLib results combined with substitutional analyses with [drawing 126] = A/C/D/E/F/I/K/L/M/N/Q/R/S/T/V/W/Y, [drawing 127] = S/T, [drawing 128] = A/C/D/E/F/I/K/L/M/N/Q/R/S/T/V/W/Y, [drawing 129] = I/L/V (Total number of peptides = 1734+22 internal control sequences). Incubation condition: [drawing 130] His-tagged CAL PDZ domain detected by anti-His (Sigma; 1∶2600)/anti-mouse-HRP (Calbiochem; 1∶2000) antibody sandwich.
Fig. S3. CAL binding data for ProLib spot array. We selected the amino acid prefer-ences of the last 4 C-terminal ligand residues based on their frequency deduced from the 6223-Humlib and the substitutional analysis. […] Incubation condition: 10 µg/ml His-tagged CAL PDZ domain detected by anti-His (Sigma; 1:2600)/anti-mouse-HRP (Calbiochem; 1:2000) antibody sand- […]

Compound: COc1ccc(Cl)cc1Nc1nc(-c2sc(NC(=O)c3ccccc3)nc2C)cs1 [corr-4a]
- increase in ΔF508-CFTR levels (ΔF508-CFTR chloride flux [1]): 15%

Compound: Ac-WQDSGI [kCAL31]
- Experimental Ki (inhibitor dissociation constant) (CAL PDZ domain [2]; FP competition with labeled peptide, 25 mM Tris-HCl pH 8.5, 150 mM NaCl, 0.1 mg/mL bovine IgG, 0.5 mM Thesit, average of three FP experiments on separate days): no binding was detected; also recorded: no CAL binding detected

Compound: Ac-WQFTRL [kCAL02, Ac-WQFTRL]
- Ki (CAL PDZ domain [2]): < 14 µM

Compound: Ac-WQKTRI [kCAL05, Ac-WQKTRI]
- Ki (CAL PDZ domain [2]): < 14 µM

Compound: Ac-WQKTRL [kCAL03, Ac-WQKTRL]
- Ki (CAL PDZ domain [2]): < 14 µM

Compound: Ac-WQRTRL [kCAL04, Ac-WQRTRL]
- Ki (CAL PDZ domain [2]): < 14 µM

Compound: Ac-WQVTRV [kCAL01, Ac-WQVTRV]
- improvement in chloride secretion with respect to reference peptide iCAL35 (ΔF508-CFTR chloride flux [3]; BioPORTER delivery): 8%
- improvement in chloride secretion with respect to control peptide kCAL31 (ΔF508-CFTR chloride flux [3]): 12%
- binding efficiency (ratio of inhibitor potency, ΔG, to molecular mass) relative to F*-iCAL36 (CAL PDZ domain [2]): approximately twice
- improvement in CAL binding affinity compared to iCAL35 (CAL PDZ domain [2]; FP): six-fold
- improvement in CAL binding affinity over HumLib01 (CAL PDZ domain [2]; FP): six-fold
- Ki (CAL PDZ domain [2]): < 14 µM
- fold higher affinity than any comparable natural ligand (CAL PDZ domain [2]; versus best known natural ligand ANGLMQTSKL): 9 fold
- fold tighter binding to CAL than the CFTR C-terminus (CAL PDZ domain [2]; versus wild-type CFTR sequence TEEEVQDTRL): 170 fold

Compound: WQSTRL [HumLib01]
- CAL binding in ProLib array (CAL PDZ domain [4]): strongest binder
- improvement in CAL binding affinity compared to iCAL35 (CAL PDZ domain [2]; FP): only a marginal improvement

Compound: WQTSII [iCAL35, reference compound]
- improvement in chloride secretion with respect to control peptide kCAL31 (ΔF508-CFTR chloride flux [3]): 4%
